Results published in ChEMBL document CHEMBL1138303, “Putative bioactive conformations of amide linked cyclic myelin basic protein peptide analogues associated with experimental autoimmune encephalomyelitis” (J Med Chem, 2007).
Activity calls are given as the source filed them. The calls are words filed in the database; no cut-off is given here. Peptide text beside a SMILES is read from it.

How the values were obtained:
[1] = Solubility per 100 uL of the compound; type: physicochemical
Rattus norvegicus = organism: Rattus norvegicus; experiment: Inhibition of encephalitogenic MBP(74-85)-induced encephalomyelitis in Lewis rat; type: functional, organism-based

Compound | Solubility [1] [mg] | Activity (Rattus norvegicus)
CC[C@H](C)[C@@H]1NC(=O)[C@H](CC(N)=O)NC(=O)[C@H](CCCCN)NC(=O)[C@H](Cc2ccccc2)NC(=O)[C@H](Cc2ccccc2)NC(=O)[C@H](Cc2c[nH]cn2)NC(=O)[C@H](C(C)C)NC(=O)[C@@H]2CCCN2C(=O)[C@H]([C@@H](C)O)NC(=O)[C@H](CCCNC(=N)N)NC(=O)[C@@H]2CCCN2C(=O)[C@H]([C@@H](C)O)NC(=O)[C@H](C(C)C)NC1=O | 16 | 
CC[C@H](C)[C@@H]1NC(=O)[C@H](CC(N)=O)NC(=O)[C@H](C)NC(=O)[C@H](Cc2ccccc2)NC(=O)[C@H](Cc2ccccc2)NC(=O)[C@H](Cc2c[nH]cn2)NC(=O)[C@H](C(C)C)NC(=O)[C@@H]2CCCN2C(=O)[C@H]([C@@H](C)O)NC(=O)[C@H](CCCNC(=N)N)NC(=O)[C@H](C)NC(=O)[C@H]([C@@H](C)O)NC(=O)[C@H](C(C)C)NC1=O (HELM PEPTIDE1{A.N.I.V.T.A.R.T.P.V.H.F.F}$PEPTIDE1,PEPTIDE1,1:R1-13:R2$$$V2.0) | 1.15 | Active
CC[C@H](C)[C@@H]1NC(=O)[C@H](CC(N)=O)NC(=O)[C@H](CCCNC(=N)N)NC(=O)[C@H](Cc2ccccc2)NC(=O)[C@H](Cc2ccccc2)NC(=O)[C@H](Cc2c[nH]cn2)NC(=O)[C@H](C(C)C)NC(=O)[C@@H]2CCCN2C(=O)[C@H]([C@@H](C)O)NC(=O)[C@H](CCCNC(=N)N)NC(=O)[C@H](C)NC(=O)[C@H]([C@@H](C)O)NC(=O)[C@H](C(C)C)NC1=O (HELM PEPTIDE1{A.R.T.P.V.H.F.F.R.N.I.V.T}$PEPTIDE1,PEPTIDE1,1:R1-13:R2$$$V2.0) | 16.25 | Active
